According to patent US9446034B2, “Pyrazolylaminopyridines as inhibitors of FAK” (GlaxoSmithKline LLC, priority 2008, dated 2016):

How the values were obtained:
[1] = target: T1, GST-tagged FAK (Homo sapiens, UniProt Q05397); experiment: Biochemical assay for FAK activity, Assay 1: GST-FAK, peptide substrate phosphorylation with 33P-ATP; conditions: 5 μM ATP, 30 min pre-incubation, read-out: Assay 1 FAK TRF PXC50 (converted)
T1 construct: purchased Invitrogen PV3832
Protocol: (§1) Biochemical Assay for FAK Activity
To measure inhibitors of FAK, compounds were first prepared as a 10× stock in 10% DMSO. […] A 6-nM GST-FAK solution was prepared in 1.1× reaction buffer containing 44 mM HEPES, pH=7.2, 11 mM MgCl2, 2.2 mM MnCl2, 1.1 mM DTT and 0.011% Tween-20. Then, 20 μL of the 6 nM GST-FAK solution were pre-incubated with the compounds for 30 min at room temperature. […] The reaction was allowed to proceed for 90 min before being quenched with 40 μL of 1% H3PO4. A portion of the reaction mixture (60 μL) was transferred to a phospho-cellulose filter plate (Millipore; www.millipore.com, MAPHNOB50) and incubated for 20 minutes. The plate was filtrated, washed three times using 150 μL of 0.5% H3PO4 and dried at 50° C. for 30 min. After the addition of 60 μL Microscint-20 to the plate, radioactivity was measured using a TopCount (PerkinElmer; www.PerkinElmer.com).

[2] = target: T2, Full length Human FAK (FLAG-6×His-TEV-huFAK) (Homo sapiens, UniProt Q05397); experiment: Biochemical assay for FAK activity, Assay 2: Flag-His-TEV-FAK1, LANCE Ultra ULight peptide phosphorylation; conditions: Flag-His-TEV-FAK1, 10 μM ATP, 30 min pre-incubation; read-out: Assay 2 FAK H 31284A TRF PXC50 (converted)
T2 construct: Full length Human FAK was expressed using baculovirus in Sf9 cells; made in house; host or cells: baculovirus in Sf9 cells
Protocol: as §1
Assay 2: Flag-His-TEV-FAK1 was prepared in-house. Full length Human FAK was expressed using baculovirus in Sf9 cells with N-terminal FLAG-6×His tags followed by a TEV cleavage site (FLAG-6×His-TEV-huFAK). […] To measure inhibitors of FAK, compounds were first prepared as a 100× stock in 100% DMSO. A small portion of each compound solution (50 nL) was added to a black 384-well low-volume microtiter plate (Greiner 784076). A 1.2 nM Flag-His-TEV-FAK1 solution was prepared in 1× reaction buffer containing 40 mM Tris/Tris-HCL, 10 mM MgCl2, 1 mM CHAPS, at a pH of 7.5, with 1 mM DTT added. 2.5 ul of the 1.2 nM Flag-FAK solution was added to the plates and pre-incubated with the compounds for 30 min at room temperature. […] After incubating for 120 minutes at room temperature, the reaction is quenched by adding 5 uL of 20 mM EDTA and 5nMEu-Anti-pTyr antibody in 1× LANCE detection buffer. After a 30 minute incubation at room temperature, the plate is read on a Perkin Elmer Viewlux with a 320-340 nm excitation filter and measuring emission at 615 nm and 665 nm. The ratio of 665 nm/615 nm is used for data normalization.

T2 sequence (Q05397 whole entry): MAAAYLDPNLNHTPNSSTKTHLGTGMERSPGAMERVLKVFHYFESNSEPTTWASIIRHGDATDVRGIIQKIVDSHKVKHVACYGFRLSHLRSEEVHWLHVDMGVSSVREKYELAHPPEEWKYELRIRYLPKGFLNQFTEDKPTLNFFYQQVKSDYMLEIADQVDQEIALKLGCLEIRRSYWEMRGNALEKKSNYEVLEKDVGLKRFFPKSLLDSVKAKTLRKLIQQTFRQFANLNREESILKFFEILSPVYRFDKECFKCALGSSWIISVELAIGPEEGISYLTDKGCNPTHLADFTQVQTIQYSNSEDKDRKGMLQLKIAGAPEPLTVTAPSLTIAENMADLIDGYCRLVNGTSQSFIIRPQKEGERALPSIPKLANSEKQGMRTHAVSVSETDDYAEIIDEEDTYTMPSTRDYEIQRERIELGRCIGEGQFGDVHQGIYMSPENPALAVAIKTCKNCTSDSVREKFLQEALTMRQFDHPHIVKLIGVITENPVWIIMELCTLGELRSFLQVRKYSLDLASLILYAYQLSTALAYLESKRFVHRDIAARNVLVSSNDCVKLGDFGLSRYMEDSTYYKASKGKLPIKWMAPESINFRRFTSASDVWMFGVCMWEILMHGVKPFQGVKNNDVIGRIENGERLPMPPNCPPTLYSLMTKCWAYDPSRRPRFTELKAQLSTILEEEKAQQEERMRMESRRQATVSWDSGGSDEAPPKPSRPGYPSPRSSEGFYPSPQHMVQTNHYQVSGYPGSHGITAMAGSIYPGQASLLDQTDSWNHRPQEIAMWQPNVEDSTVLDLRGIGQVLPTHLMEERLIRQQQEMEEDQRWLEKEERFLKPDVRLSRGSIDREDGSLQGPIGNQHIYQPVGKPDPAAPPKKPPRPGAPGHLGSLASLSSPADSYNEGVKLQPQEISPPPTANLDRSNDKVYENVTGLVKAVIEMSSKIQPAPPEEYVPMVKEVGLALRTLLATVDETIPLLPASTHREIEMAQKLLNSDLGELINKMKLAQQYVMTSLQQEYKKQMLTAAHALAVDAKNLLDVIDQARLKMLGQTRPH
T1 sequence (Q05397 whole entry): as above

IC50 [1] | IC50 [2] | SMILES
0.794 nM | 10 nM | CCn1nccc1Nc1cc(Nc2cc(F)c(F)cc2C(=O)NC)c(Cl)cn1 [Example 10, 2-({5-Chloro-2-[(1-ethyl-1H-pyrazol-5-yl)amino]-4-pyridinyl}amino)-4,5-difluoro-N-methylbenzamide]
6.31 nM | 63.1 nM | CCNC(=O)c1ccccc1Nc1cc(Nc2ccnn2CC)ncc1Cl [Example 44, 2-({5-Chloro-2-[(1-ethyl-1H-pyrazol-5-yl)amino]-4-pyridinyl}amino)-N-ethylbenzamide]
